Measurements published in ChEMBL document CHEMBL4028831, “Improvement of hERG-ROMK index of spirocyclic ROMK inhibitors through scaffold optimization and incorporation of novel pharmacophores” (Bioorg Med Chem Lett, 2017).

How the values were obtained:
[1] = biological target: T1, ATP-sensitive inward rectifier potassium channel 1 (Rattus norvegicus, UniProt P35560); test: Inhibition of rat ROMK expressed in HEK293 cells after 30 mins by FLIPR based thallium flux assay; type: cell-based
T1 sequence (P35560 whole entry): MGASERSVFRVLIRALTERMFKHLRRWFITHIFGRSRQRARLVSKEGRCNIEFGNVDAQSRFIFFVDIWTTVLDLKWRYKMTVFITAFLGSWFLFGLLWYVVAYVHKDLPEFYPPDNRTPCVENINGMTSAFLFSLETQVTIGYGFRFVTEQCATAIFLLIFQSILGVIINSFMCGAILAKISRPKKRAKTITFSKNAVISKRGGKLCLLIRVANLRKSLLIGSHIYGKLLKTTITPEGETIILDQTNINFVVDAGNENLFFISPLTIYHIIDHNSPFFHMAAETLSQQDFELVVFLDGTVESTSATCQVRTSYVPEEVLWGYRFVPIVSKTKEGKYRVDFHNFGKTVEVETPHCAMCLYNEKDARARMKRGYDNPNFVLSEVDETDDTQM

Cytochrome P450 3A4 = Cytochrome P450 3A4 (Homo sapiens, UniProt P08684); test: Time dependent inhibition of CYP3A4 (unknown origin) in presence of NADPH; type: ADME
Cytochrome P450 3A4, sequence (P08684 whole entry): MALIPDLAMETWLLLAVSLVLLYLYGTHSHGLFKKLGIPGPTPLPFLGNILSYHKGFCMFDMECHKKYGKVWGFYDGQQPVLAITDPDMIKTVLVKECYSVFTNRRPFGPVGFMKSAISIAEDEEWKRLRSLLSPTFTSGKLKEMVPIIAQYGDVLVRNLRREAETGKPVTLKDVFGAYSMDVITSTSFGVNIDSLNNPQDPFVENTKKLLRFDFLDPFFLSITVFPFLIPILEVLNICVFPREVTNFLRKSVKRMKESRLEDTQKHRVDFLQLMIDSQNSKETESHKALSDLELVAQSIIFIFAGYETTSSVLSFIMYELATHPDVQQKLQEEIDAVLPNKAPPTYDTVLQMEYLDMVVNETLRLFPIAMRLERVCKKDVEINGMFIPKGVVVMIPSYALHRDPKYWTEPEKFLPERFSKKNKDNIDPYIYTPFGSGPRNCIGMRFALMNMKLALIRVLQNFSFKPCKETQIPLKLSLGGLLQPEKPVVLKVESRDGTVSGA

[2] = Fraction unbound in human plasma; type: ADME, cell-free
[3] = Clearance in Wistar Han rat at 1 mg/kg, iv or 2 mg/kg, po; details: in vivo
[4] = Fraction unbound in dog plasma; type: ADME, cell-free, Canis lupus familiaris
Homo sapiens = species on record: Homo sapiens; test: Unbound Cmax in human; type: ADME
[5] = biological target: T2, ATP-sensitive inward rectifier potassium channel 1 (Homo sapiens, UniProt P48048); test: Inhibition of human ROMK expressed in CHO cells at -70 mV holding potential after 6 mins by whole cell patch clamp Qpatch method; type: cell-based
T2 sequence (P48048 whole entry): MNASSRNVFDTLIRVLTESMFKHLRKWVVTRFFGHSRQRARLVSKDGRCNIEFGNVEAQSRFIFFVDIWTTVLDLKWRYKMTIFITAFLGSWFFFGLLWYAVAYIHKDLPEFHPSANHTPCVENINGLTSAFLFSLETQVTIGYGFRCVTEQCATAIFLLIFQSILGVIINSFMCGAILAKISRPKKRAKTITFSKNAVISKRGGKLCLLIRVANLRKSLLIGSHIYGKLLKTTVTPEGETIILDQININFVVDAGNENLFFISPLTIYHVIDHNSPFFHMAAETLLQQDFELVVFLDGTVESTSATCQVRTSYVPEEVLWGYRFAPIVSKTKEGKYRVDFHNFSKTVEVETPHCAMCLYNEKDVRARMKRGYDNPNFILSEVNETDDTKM

Rattus norvegicus = species on record: Rattus norvegicus; details: in vivo, po, 2 mg/kg
Cavia porcellus = test: Cardiotoxicity in anesthetized cardiovascular guinea pig model assessed as prolongation of QTc interval at 7 mg/kg administered as iv infusion relative to control; type: toxicity, organism-based; details: in vivo

Work on `Cc1c([C@@H](O)CN2CCC3(CC2)CCN(c2ccc(=O)n(C)n2)C3=O)ccc2c1COC2=O` yielded an IC50 [1] of 38 nM, an IC50 (Cytochrome P450 3A4) greater than 50000 nM and a fraction unbound [2] of 0.456. For the same compound, the clearance [3] was 25 mL/min/kg, the fraction unbound [4] was 0.405 and the fCmax (Homo sapiens) was 0.12 µM. The IC50 [5] was 17 nM, the AUC/dose (Rattus norvegicus) was 1.2 µM·kg·h/mg and the Activity (Cavia porcellus) was 12%.
